In patent publication US8101766B2, “Crystalline form of a biphenyl compound” (Theravance, Inc., priority 2004, dated 2012):

Key:
[1] = Thermal analysis (DSC and TGA); assay type: physicochemical; conditions: DSC traces, samples of Example 6 and Example 2
Procedure: Differential scanning calorimetry (DSC) was performed using a TA Instruments Model Q-10 module with a Thermal Analyst controller. Data were collected and analyzed using TA Instruments Thermal Solutions software. A sample of about 1 mg was accurately weighed into an aluminum pan with lid. The sample was evaluated using a linear heating ramp of 5° C./min from ambient temperature to approximately 300° C. The DSC cell was purged with dry nitrogen during use. A representative DSC trace for a sample of a crystalline 1,2-ethanedisulfonic acid salt of biphenyl-2-ylcarbamic acid 1-[2-(2-chloro-4-{[(R)-2-hydroxy-2-(8-hydroxy-2-oxo-1,2-dihydroquinolin-5-yl)ethylamino]methyl}-5-methoxyphenylcarbamoyl)ethyl]piperidin-4-yl ester of Example 6 is shown in FIG. 1 and a representative DSC trace for a sample of Example 2 is shown in FIG. 2.
Thermogravimetric analysis (TGA) was performed using a TA Instruments Model Q-50 module equipped with high resolution capability. Data were collected and analyzed using TA Instruments Thermal Solutions software. A sample weighing about 10 mg was placed onto a platinum pan and scanned with a high resolution-heating rate from ambient temperature to 300° C. The balance and furnace chambers were purged with nitrogen flows during use. […]

[2] = Dynamic moisture sorption (DMS) assessment; assay type: physicochemical; conditions: for deliquescence: exposed to atmospheric moisture / DMS
Procedure: Dynamic Moisture Sorption Assessment
A dynamic moisture sorption (DMS) assessment (also known as a moisture sorption-desorption profile) was performed for a hand ground sample of a crystalline 1,2-ethanedisulfonic acid salt of biphenyl-2-ylcarbamic acid 1-[2-(2-chloro-4-{[(R)-2-hydroxy-2-(8-hydroxy-2-oxo-1,2-dihydroquinolin-5-yl)ethylamino]methyl}-5-methoxyphenylcarbamoyl)ethyl]piperidin-4-yl ester of Preparation 18 using a VTI atmospheric microbalance, SGA-100 system (VTI Corp., Hialeah, Fla. 33016). A sample size of approximately 10 mg was used and the humidity was set at the ambient value at the start of the analysis. A typical DMS analysis consisted of three scans: ambient to 2% relative humidity (RH), 2% RH to 90% RH, 90% RH to 5% RH at a scan rate of 5% RH/step. The mass was measured every two minutes and the RH was changed to the next value (+/−5% RH) when the mass of the sample was stable to within 0.01% for 5 consecutive points.

For “Biphenyl-2-ylcarbamic Acid 1-[2-(2-Chloro-4-{[(R)-2-hydroxy-2-(8-hydroxy-2-oxo-1,2-dihydroquinolin-5-yl)ethylamino]methyl}-5-methoxyphenylcarbamoyl)-ethyl]piperidin-4-yl Ester 1,2-Ethanedisulfonic Acid Salt”, the “thermal stability: temperature below which no thermal decomposition” value [1] was ≥ 200 °C, the sorption/desorption profile ([2]; DMS) was “reversible” and the hygroscopicity ([2]; DMS trace, scans 2% RH to 90% RH, hand ground sample of Preparation 18) was < 9%. For the same substance, the deliquescence [2] was “not deliquescent”, the deliquescence ([2]; listed as crystalline 1,2-ethanedisulfonic acid salts of the compound of formula I) was “not to be deliquescent” and the weight gain ([2]; humidity range of 40% RH to 75% RH) was “less than 2.5%”.
